ChEMBL document CHEMBL4627311, “Discovery of 4-((1-(1H-imidazol-2-yl)alkoxy)methyl)pyridines as a new class of Trypanosoma cruzi growth inhibitors” (Bioorg Med Chem Lett, 2020)

What was measured:
[1] = molecular target: Sterol 14-alpha demethylase (Trypanosoma cruzi (strain CL Brener), UniProt Q7Z1V1); assay: Inhibition of Trypanosoma cruzi CYP51
[2] = system: Trypanosoma cruzi; assay: Antitrypanosomal activity against Trypanosoma cruzi; format: functional, organism-based

Sterol 14-alpha demethylase, sequence (Q7Z1V1 whole entry): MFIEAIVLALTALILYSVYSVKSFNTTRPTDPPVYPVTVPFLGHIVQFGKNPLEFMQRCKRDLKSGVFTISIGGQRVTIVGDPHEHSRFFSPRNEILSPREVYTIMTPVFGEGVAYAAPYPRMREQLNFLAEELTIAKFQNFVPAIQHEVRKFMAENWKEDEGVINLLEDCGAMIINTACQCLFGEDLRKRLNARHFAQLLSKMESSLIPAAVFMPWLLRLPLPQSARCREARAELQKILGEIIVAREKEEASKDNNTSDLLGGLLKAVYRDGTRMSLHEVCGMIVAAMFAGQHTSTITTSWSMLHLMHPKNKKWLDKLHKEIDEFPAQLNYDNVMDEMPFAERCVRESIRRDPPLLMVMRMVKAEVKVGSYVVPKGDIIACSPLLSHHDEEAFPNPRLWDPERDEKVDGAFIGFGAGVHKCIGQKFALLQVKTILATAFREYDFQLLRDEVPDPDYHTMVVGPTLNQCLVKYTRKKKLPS

Row | SMILES | IC50 [1] [nM] | EC50 [2] [nM]
1 | CCC(=O)CCCCCC(Oc1ccc2ccccc2c1)c1ncc(Cc2ccccc2)[nH]1 (centres undefined) | 2900 | –
2 | CC(OCc1ccncc1)c1ncc(-c2ccc3ccccc3c2)[nH]1 (centres undefined) | 77 | –
3 | CCC(=O)CCCCCC(OCc1ccncc1)c1ncc(-c2ccc3ccccc3c2)o1 (centres undefined) | 53 | –
4 | CCC(=O)CCCCCC(Oc1ccc2ccccc2c1)c1ncc(Cc2ccncc2)[nH]1 (stereo in doubt; 34) | 41 | –

Second part, the compound after the results:

Row | IC50 [1] [nM] | EC50 [2] [nM] | SMILES
5 | – | 2000 | CCC(=O)CCCCCC(Oc1cc2ccccc2nc1OC)c1ncc(Cc2ccncc2)[nH]1 (centres undefined)
6 | 52 | – | CCC(=O)CCCCCC(Oc1ccc2ccccc2c1)c1ncc(Cc2ccncc2)[nH]1 (stereo in doubt; 11)
7 | 34 | – | CCC(=O)CCCCCC(Oc1ccc2ccccc2c1)c1ncc(Cc2ccncc2)[nH]1 (stereo in doubt; 35)
8 | – | 2000 | O=C(Cn1ccnc1[N+](=O)[O-])NCc1ccccc1 [BENZNIDAZOLE]
9 | – | 8000 | CC1CS(=O)(=O)CCN1/N=C/c1ccc([N+](=O)[O-])o1 (centres undefined) [NIFURTIMOX]
